Experimental data taken from patent US11014953B2, “Trigger-activatable metabolic sugar precursors for cancer-selective labeling and targeting” (priority 2015, dated 2021).
Peptide text beside a SMILES is read from it. * marks the point of attachment. Cbz = O=C(OCc1ccccc1)*

Tests used:
[1] = system: LS174T colon cancer cells; experiment: Metabolic labeling of LS174T cells with azido-sugars, azides detected by DBCO-Cy5 (confocal imaging, flow cytometry); assay type: cell-based; details: for Labeling efficiency of E-S on co-incubation with inhibitor: LS174T cells co-incubated with E-S and inhibitor
Protocol: General procedures for confocal imaging of azido-sugar labeled cells. Cells were seeded onto coverslips in a 6-well plate at a cell density of 40 k/well. Ac4ManAz or Ac3ManAz derivatives were added with a final concentration of 50 μM and the cells were incubated at 37° C. for 72 h. The medium was removed and washed with PBS for three times. DBCO-Cy5 (50 μM) in Opti-MEM was then added and the cells were incubated for another 1 h. Then the medium was removed and the cells were washed with PBS for three times. 4% paraformaldehyde (PFA) solution was added to fix the cells for 10 min, followed by staining of cell nucleus with DAPI (2 μg/mL) for 10 min. The coverslips were mounted on microscope slides with the addition of ProLong Gold antifade reagent, and the prepared sample was stored in dark for imaging.
General procedures for flow cytometry analysis of azido-sugar labeled cells. Cells were seeded onto coverslips in a 6-well plate at a cell density of 40 k/well. Ac4ManAz or Ac3ManAz derivatives were added and incubated with cells for 72 h. After removal of medium and multiple washing steps, DBCO-Cy5 in opti-MEM was added and incubated with cells at 37° C. for 1 h. The opti-MEM was then removed and cells were washed with PBS for three times. Cells were lifted by incubating with trypsin solution (1 mL) at 37° C. for 3 min and transferred to test tubes with addition of 4% PFA solution (0.5 mL). Twenty thousand cells per sample were analyzed by flow cytometry and data analysis was performed on the FCS Express software.
Ac3ManAzNB mediated controlled cell labeling. LS174T cells were seeded onto coverslips in a 6-well plate at a cell density of 40 k/well. Ac3ManAzNB with a final concentration of 50 μM was added. […] Cells without UV irradiation were continuously incubated for 72 h. Cell samples for confocal imaging and flow cytometry were then prepared following the above-mentioned procedures.
Ac3ManAzHQ mediated controlled cell labeling. LS174T colon cancer cells or Caco-2 colon cancer cells or human fibroblast IMR90 cells were seeded onto coverslips in a 6-well plate at a cell density of 40 k/well and allowed to attach for overnight. Ac3ManAzHQ with a final concentration of 50 μM was added, followed by the addition of curcumin with a final concentration of 50 μM. Cells treated with PBS or Ac3ManAzHQ only were used as control. After 72-h incubation, cell samples for confocal imaging and flow cytometry were prepared following the above-mentioned procedures.
(§1) E-S mediated controlled cell labeling in vitro. LS174T colon cancer cells or human fibroblast IMR90 cells were seeded onto coverslips in a 6-well plate at a cell density of 40 k/well. E-S with a final concentration of 50 μM was added, followed by the addition of either TSA (1 μM) or Z-FY-CHO (50 μM). Cells treated with PBS or E-S only were used as the control. After 72-h incubation, the medium was removed and cell samples for confocal imaging and GE-Analyzer measurements were prepared similarly to above-mentioned procedures.

[2] = system: LS174T cells; experiment: Western blot analysis of LS174T cells treated with azido-sugars; assay type: cell-based
Protocol: Western blot analysis of cells treated with azido-sugars. LS174T cells were seeded onto cell culture flasks (25 cm^2 growth area) at a density of 1×10^6 cells per plate in 5 mL of media. Different azido-sugars were added and incubated with cells for 72 h. The cells were washed with PBS twice and harvested from the flasks using a cell scraper. Cells were pelleted by centrifugation at 1000 rpm for 5 min and re-suspended in 200 μL of lysis buffer (1% SDS, 100 mM Tris.HCl, pH 7.4) containing 1 tablet protease inhibitor (EDTA-free). The lysate was incubated at 4° C. for 30 min, followed by centrifugation at 3000 rcf for 10 min to remove insoluble debris. The total concentration of soluble protein in each sample was determined by bicinchoninic acid (BCA) assay and adjusted to the same concentration. Then 20 μL of the lysate was taken out and incubated with phosphine-PEG3-biotin (2 μL, 5 mM in PBS) at 37° C. for 6 h. Loading buffer was added to each sample and samples were loaded onto 10% SDS-PAGE gel after heating at 95° C. After running the gel for 100 min, proteins were transferred to Hybond P membrane, followed by blocking of the membrane with 5% bovine serum albumin (BSA) in TBST (50 mM Tris.HCl, 150 mM NaCl, 0.1% Tween 20, pH 7.4) for 2 h. The membrane was then incubated with streptavidin-HRP (diluted 1:2000 in TBST) overnight at 4° C., rinsed with TBST for three times and developed by ECL Western Blotting Substrate. For fluorescent visualization of protein bands, 20 μL of cell lysate was directly incubated with DBCO-Cy3 solution for 3 h. After the gel running and membrane transfer, protein bands were visualized using an Image Quant LAS 4010 system with a Cy3/Cy3 (excitation/emission) channel.

[3] = system: subcutaneous LS174T tumors; experiment: In vivo tumor labeling after intratumoral injection of azido-sugars, DBCO-Cy5 i.v.; parameters: species or system athymic nude mice; details: for In vivo Cy5 fluorescence intensity of pretreated left tumors vs control right tumors: 24 h p.i. of i.v. DBCO-Cy5; for Ex vivo difference in Cy5 FI between treated tumors and control tumors: ex vivo imaging of tumors; for Western blot of tumors (azido-modified glycoproteins): intratumoral once daily for three days, tumors harvested 24 h p.i.; for Cy5 fluorescence of tumor sections (confocal imaging): tumor sections after ex vivo imaging
Protocol: In vivo tumor labeling of Ac4ManAz, Ac3ManAzEt, and Ac3ManAzNB. LS174T tumor models were established on 6 week-old athymic nude mice by subcutaneous injection of LS174T colon cancer cells (1.5 million) in HBSS/matrigel (1/1, v/v) to both flanks. When the tumors grew to 5-6 mm, Ac4ManAz or Ac3ManAzEt or Ac3ManAzNB (25 mM, 20 μL) was injected into the left tumors once daily for three days while the same amount of PBS was injected to the right tumors as control (N=3 per group). At 24 h post the last injection, DBCO-Cy5 (5 mg/kg) was i.v. injected and its biodistribution was monitored via in vivo fluorescence imaging. Prior to imaging, nude mice were placed on the sample stage equipped with anesthesia input and output ports, and imaged by the Maestro In-Vivo Fluorescence Imaging System. The excitation filter of 575-605 nm was used. The tunable emission filter was automatically stepped in 10-nm increments from 630 to 850 nm with an exposure time of 50 ms for images taken at each wavelength. Collected images were analyzed by the Maestro software, which uses spectral unmixing algorithms to subtract autofluorescence from Cy5 signals. Tumors and major organs were harvested from mice at 24 h post injection of DBCO-Cy5. Ex vivo images were collected similarly using the Maestro system. Fluorescence intensity at selected ROIs was quantified using Maestro imaging software. All values were presented as means±standard deviation (n=3).
Western blot analysis of tissues. Tumors and organs harvested from azido-sugar treated mice were transferred into glass tubes containing 2 mL of lysis buffer (1% SDS, 100 mM Tris HCl, pH 7.4), homogenized, and incubated at 4° C. for 30 min. The lysates were then centrifuged at 3000 rcf for 10 min to remove the insoluble debris. Total soluble protein concentrations were determined by BCA assay and adjusted to 5 mg/mL for each group. The rest of procedures were the same as the above-mentioned western blot analysis of cells.
Confocal imaging of tumor tissue sections. After ex vivo imaging, tumors were directly frozen in O.C.T. compound and sectioned on a cryostat (Leica CM3050S) with a thickness of 6-8 μm. DAPI in PBS (2 μg/mL) was added onto the tissue-attaching microscope slides to stain cell nucleus. After 10 min, DAPI solution was removed and tissues were washed with PBS for three times. Coverslips were mounted on the microscope slides with the addition of ProLong Gold antifade reagent, and the prepared sample was stored in dark for confocal imaging.

[4] = system: LS174T cells; experiment: Uptake mechanism of DBCO-Cy5 in E-S pretreated LS174T cells; assay type: cell-based
Protocol: Uptake mechanism of DBCO-Cy5 or D-D in vitro. LS174T cells were seeded onto a tissue culture dish with cover glass bottom, and incubated with E-S (50 μM) for three days. After multiple washing with PBS, Lysotracker green in fresh medium was added and incubated for 1 h. Then DBCO-Cy5 was added and cells were further incubated for 1 h. Hoechst 33342 (10 μg/mL) and CellMask orange plasma membrane stain (1 μg/mL) were added to stain cell nucleus and cell membrane, respectively for 10 min. After removing the medium and washing with PBS, cells were further incubated at 37° C. At different time points (1 h, 3 h, 6 h, 12 h, and 24 h), cells were imaged under a fluorescence microscope to monitor the uptake of DBCO-Cy5. Cells without E-S pretreatment were used as control. For live cell imaging of D-D treated cells, CellMask deep red plasma membrane stain was used to stain cell membrane and lysosomes were not stained to avoid the interference over fluorescence signals of D-D.

[5] = system: cellular HDAC/CTSL activity; experiment: Inhibitory effect of TSA and Z-FY-CHO on cellular HDAC/CTSL activity (Naph-Lys reporter); assay type: cell-based
Protocol: Detection of cellular HDAC/CTSL activity. Cells were seeded in a 24-well plate at a cell density of 8 k/well, and were allowed to attach for overnight. Naph-Lys (50 μM) in OptiMEM was added and incubated with cells for different time (30 min, 1 h, 2 h, and 4 h). After removal of the OptiMEM and washing with PBS twice, cells were fixed with 4% PFA for 10 min and stained with DAPI (2 ng/mL) for 10 min. Average fluorescence intensity of cells were measured on a GE-Analyzer using DAPI and FITC channels. The DAPI channel was used for determining cell number per well. The FITC channel was used to determine the total fluorescence intensity of released Naph-NH2 per well. Data were presented with the average fluorescence intensity per cell.
Inhibitory effect of TSA and Z-FY-CHO on cellular HDAC/CTSL activity. TSA and Z-FY-CHO are known to be the inhibitor of HDAC and CTSL, respectively. To study their inhibitory effect, cells were seeded in a 24-well plate at a cell density of 8 k/well, and were allowed to attach for overnight. Cells were then divided into 4 groups: group 1 cells were added Naph-Lys (50 μM); group 2 cells were added Naph-Lys (50 μM)+TSA (1 μM); group 3 cells were added Naph-Lys (50 μM)+Z-FY-CHO (20 μM); group 4 cells were added PBS as negative control. […] Average fluorescence intensity of cells were measured on a GE-Analyzer using DAPI and FITC channels.

[6] = system: MDA-MB-231 breast cancer cells; experiment: E-S mediated in vitro labeling of MDA-MB-231 cells; assay type: cell-based
Protocol: as §1, with “in vitro” for “controlled cell”, “of MDA-MB-231 cells. MDA-MB-231 breast” for “in vitro. LS174T colon”, “cancer” for “cancer cells or human fibroblast IMR90”, “as” for “as the”, “IN cell Analyzer” for “GE-Analyzer”, “following the” for “similarly to”

Row | Structure (SMILES) | In vivo Cy5 fluorescence intensity of pretreated left tumors vs control right tumors [3] | Ex vivo difference in Cy5 FI between treated tumors and control tumors [3] | Western blot of tumors (azido-modified glycoproteins) [3] | Cy5 fluorescence of tumor sections (confocal imaging) [3] | Labeling efficiency of E-S on co-incubation with inhibitor [1] | Turn-on fluorescence intensity of Naph-Lys in the presence of the inhibitor [5] | Labeling efficiency of E-S in the presence of inhibitor [6] | other results
1 | CCOC1O[C@H](COC(C)=O)[C@@H](OC(C)=O)[C@H](OC(C)=O)[C@@H]1NC(=O)CN=[N+]=[N-] (stereo partly drawn) [Ac3ManAzEt] | negligible Cy5 retention enhancement | no significant difference | the same endogenous protein bands as PBS group | negligible Cy5 fluorescence | – | – | – | Cy5 fluorescence on the cell surface (CLSM) ([1]; LS174T cells, 50 μM azido-sugar three days (72 h), then DBCO-Cy5 1 h): negligible Cy5 fluorescence on the cell surface; Western blot of azido-glycoproteins (biotinylated with phosphine-PEG3-biotin) ([2]; 72 h): only two endogenous biotinylated proteins
2 | CC(=O)OC[C@H]1OC(OCc2ccccc2[N+](=O)[O-])[C@@H](NC(=O)CN=[N+]=[N-])[C@@H](OC(C)=O)[C@@H]1OC(C)=O (stereo partly drawn) [Ac3ManAzNB] | negligible Cy5 retention enhancement | no significant difference | the same endogenous protein bands as PBS group | negligible Cy5 fluorescence | – | – | – | Cy5 fluorescence on the cell surface (CLSM) ([1]; LS174T cells, three days, with UV irradiation (10 min, 10 mW/cm^2)): strong Cy5 fluorescence; Cy5 fluorescence on the cell surface (CLSM) ([1]; LS174T cells, three days, without UV irradiation): negligible Cy5 fluorescence on cell surface; Cy5 fluorescence by flow cytometry ([1]; LS174T cells, with UV irradiation compared with Ac3ManAzNB only): significantly enhanced Cy5 fluorescence; Western blot of azido-glycoproteins ([2]; with UV): a series of protein bands; Western blot of azido-glycoproteins ([2]; without UV): the same two endogenous biotinylated protein bands as PBS group
3 | CC1(C)C(/C=C/C=C/C=C2/N(CCCCCC(=O)NCCC(=O)N3Cc4ccccc4C#Cc4ccccc43)c3ccc(S(=O)(=O)O)cc3C2(C)C)=[N+](CCCS(=O)(=O)[O-])c2ccc(S(=O)(=O)O)cc21 [DBCO-Cy5] | – | – | – | – | – | – | – | Further incubation time at which DBCO-Cy5 completely disappeared from the cell membrane ([4]; E-S pretreated LS174T cells): 12 h; Cy5 signal in control cells without E-S pretreatment (passive uptake) ([4]; LS174T, DBCO-Cy5 1 h): Negligible Cy5 signal
4 | CC(/C=C/C(=O)NO)=C\[C@@H](C)C(=O)c1ccc(N(C)C)cc1 [TSA, Trichostatin A] | – | – | – | – | greatly reduced | greatly decreased | significantly decreased the labeling efficiency | –
5 | O=C[C@H](Cc1ccc(O)cc1)NC(=O)[C@H](Cc1ccccc1)NC(=O)OCc1ccccc1 [Z-FY-CHO] (Cbz-Phe-Tyr-aldehyde) | – | – | – | – | greatly reduced | greatly decreased | significantly decreased the labeling efficiency | –
6 | COc1cc(/C=C/C(=O)CC(=O)/C=C/c2ccc(O)c(OC)c2)ccc1O [curcumin] | – | – | – | – | – | – | – | Labeling efficiency of Ac3ManAzHQ on co-incubation with NQO1 inhibitor ([1]; LS174T cells, compared with Ac3ManAzHQ only): significant reduction of labeling efficiency
